The results in this text go back to US20220233535A1, “USE OF INHIBITORS OF YAP/TAZ FOR THE TREATMENT OF CANCER” (Georgetown University, priority 2019, published 2022).

Counter-ions that a name gives are not always drawn.

Type in all cases: cell-based
The subject of experiment [1] is Ctrl and shY/T SN12C cells. The experiment can be described thus: Lysosome inhibitor treatment of Ctrl and shY/T cells under different nutrient conditions. The note with it: bafilomycin 24 hours, chloroquine 3 days, −Glc or −Gln medium.
Procedure: Nutrient replete conditions received 11.1 mM glucose (Millipore Sigma) and 2 mM glutamine (Lonza, Benicia, Calif.) and deprivation conditions lacked or contain reduced amount of their respective nutrient as indicated. For SC4 cells, all medium in nutrient deprivation studies contained a base of DMEM without glucose or glutamine (#D5030, Millipore Sigma) and supplemented with sodium pyruvate and sodium bicarbonate to levels in standard DMEM formulation. For conditions with glucose or glutamine, 5.6 mM glucose (Millipore Sigma) and/or 4 mM glutamine (Lonza) were added. […] Percent survival was calculated based on the sequential measurements of red fluorescent protein (RFP) fluorescence (filter range 553-574 nm) at the initiation and end of treatment using the Synergy™ Hybrid Multi-Mode Microplate Reader (BioTek, Winooski, Vt.). […]
Cells were plated at optimized seeding densities to reach 60-70% confluence on the next day, at which point the media were replaced with serum-free medium containing Dox and serially diluted compounds or vehicle control. […] After incubation for indicated time, cell viability was measured using the CellTiter-Glo Luminescence Cell Viability assay (Promega) or ATPlite Luminescence Assay (Perkin Elmer) for FIG. 1B. Percent viability for each cell lines was calculated based on vehicle control.
Experiment [2] has as its system pERK (ERK phosphorylation). The experiment can be described thus: Western blot analysis of pERK levels in SN12C cells treated with inhibitors/compounds. The note with it: for pERK levels in shY/T cells: western blot; for pERK levels in shY/T cells with increasing concentrations: HCl 1 h 0-12 mM, BAPTA 3 h 0-13 μM, Baf 3 h 0-0.5 μM; for pERK levels in Ctrl cells: CaCl2 2 hours 0, 0.5, 1, 2 mM (FIG. 7K), bicarbonate (FIG. 8K). The procedure: (§1) Cells were grown for 24 hours in serum-free medium in the presence of various inhibitors unless indicated otherwise. After a brief wash with cold PBS, cells were lysed in urea buffer (9.5 M urea, 2% 3-[(3-cholamidopropyl)dimethylammonio]-1-propanesulfonate (CHAPS)), adjusted to similar concentrations, mixed with 6× sodium dodecyl sulfate (SDS) loading dye, heated at 95° C. for 10 minutes, and subjected to SDS-polyacrylamide gel electrophoresis and semi-dry transferring to polyvinylidene fluoride (PVDF) membranes. For analysis of oxidative phosphorylation (OXPHOS) complexes, 2×10^7 Ctrl and shY/T cells were harvested and either saved as whole cell extract (WCE) or processed using the Mitochondria Isolation Kit for cultured cells according to the manufacturer's instructions (Thermo Fisher Scientific). The WCE and mitochondrial-enriched fraction were resuspended in radioimmunoprecipitation assay (RIPA) buffer for western blot analysis.
For orientation: A western blot detects proteins with antibodies after separation by electrophoresis.

Experiment [3] deals with Ctrl and shY/T SN12C cells. The experiment can be described thus: Nutrient deprivation experiments, percent change in RFP fluorescence (proliferation and survival). As to conditions: 3 days; for proliferation under nutrient-replete conditions: Ctrl and shY/T SN12C; for proliferation under nutrient-replete conditions / Glc- and Gln-starvation-induced cell death in shY/T cells: GSH 0.3 mM or EGF 1 μg/ml; for Glc- and Gln-starvation-induced cell death in shY/T cells: shY/T SN12C. As to the method:
For SN12C cells, all medium in nutrient deprivation studies contained a base of RPMI salt mix (0.42 mM Ca(NO3)2.4H2O, 0.41 mM MgSO4, 5.4 mM KCl, 23.8 mM NaHCO3, 102.7 mM NaCl, and 5.6 mM Na2HPO4), RPMI 1640 vitamins solution (Millipore Sigma, St. Louis, Mo.), MEM amino acids solution (ThermoFisher Scientific), and MEM non-essential amino acids solution (Sigma). Nutrient replete conditions received 11.1 mM glucose (Millipore Sigma) and 2 mM glutamine (Lonza, Benicia, Calif.) and deprivation conditions lacked or contain reduced amount of their respective nutrient as indicated. For SC4 cells, all medium in nutrient deprivation studies contained a base of DMEM without glucose or glutamine (#D5030, Millipore Sigma) and supplemented with sodium pyruvate and sodium bicarbonate to levels in standard DMEM formulation. For conditions with glucose or glutamine, 5.6 mM glucose (Millipore Sigma) and/or 4 mM glutamine (Lonza) were added. Reduced cellular glutathione (GSH) (Alfa Aesar, Haverhill, Mass.) and epidermal growth factor (EGF) (Millipore Sigma) were used at final concentrations of 0.3 mM and 1 μg/ml, respectively. Percent survival was calculated based on the sequential measurements of red fluorescent protein (RFP) fluorescence (filter range 553-574 nm) at the initiation and end of treatment using the Synergy™ Hybrid Multi-Mode Microplate Reader (BioTek, Winooski, Vt.). A one-way ANOVA with Sidak's multiple comparison test was used to calculate significance for all nutrient deprivation experiments.

The test system of experiment [4] is pAKT (AKT phosphorylation). The experiment can be described thus: Western blot analysis of pAKT levels in SN12C cells. The note with it: for pAKT levels in Ctrl cells: Ctrl SN12C cells treated overnight, western blot. As to the method: as §1
For experiment [5], the system named is shY/T SN12C cells. The experiment can be described thus: Media pH measurements. As to conditions: shY/T SN12C grown overnight with 0 or 0.3 μM bafilomycin. As to the method: Cells were plated at the same time with optimized seeding densities that ensure all cell lines to reach 80% confluence at the time of measurement. Medium supernatant was collected and measured using the Thermo Scientific™ Orion™ 3-Star Benchtop pH Meter after calibration.

In experiment [6] the test system is shY/T SN12C cells. Nature of the experiment: Intracellular calcium assay. As to conditions: shY/T SN12C grown overnight with 0 or 0.3 μM bafilomycin. As to the method:
Cells were grown for indicated time in serum-free medium, washed with ice-cold PBS, collected in 100 mM Tris pH 7.5 buffer using cell scraper, and processed using the Calcium Assay Kit (Cayman Chemicals) according to the manufacturer's instructions. The calcium concentrations were normalized to the protein concentrations determined using Bradford Protein Assay (Bio-Rad).
In general terms: Calcium flux is commonly read through the fluorescence of an indicator in the cells.

Setting [7] is: shY/T SN12C cells treated overnight.

Turning to `CCN(CC)CCCC(C)Nc1ccnc2cc(Cl)ccc12` (centres unmarked) [chloroquine], in experiment [1], the “sensitivity of NF2-mutant cells to lysosomal inhibition upon YAP/TAZ depletion” value was “increased the sensitivity of NF2-mutant cells to lysosomal inhibition, especially under nutrient-deprived conditions”.
Take `CC(C)NCC(O)c1ccc(NS(C)(=O)=O)cc1` (centres unmarked) [Sotalol]: in experiment [2] (setting [7]), the “pERK levels in shY/T cells” value was “none of the GPCR inhibitors reduced ERK phosphorylation”.
Take `N[C@@H](CCC(=O)N[C@@H](CS)C(=O)NCC(=O)O)C(=O)O` [GSH, glutathione]: in experiment [3] (Ctrl SN12C, −Glc or −Gln, GSH 0.3 mM), the “Glc- and Gln-starvation-induced cell death in Ctrl cells” value is given as “had no effect”. In addition, in experiment [3], the “proliferation under nutrient-replete conditions” value is “did not affect the proliferation”. The “Glc- and Gln-starvation-induced cell death in shY/T cells” value in experiment [3] (−Glc or −Gln) is “significantly inhibited”.
Consider `CNc1ncc2cc(-c3cc(NC(=O)NCCC(C)(C)C)c(F)cc3C)c(C)nc2n1` [LY3009120], for which the “pERK levels in shY/T cells” value in experiment [2] (setting [7]) was “inhibited pERK levels”. The “pAKT levels in Ctrl cells” value in experiment [4] was “did not reduce pAKT levels”.
Take `CC(Sc1nc2ccccc2[nH]1)C(=O)N/N=C/c1cc(Br)ccc1O` (centres unmarked) [KH7]: the “bicarbonate-raised pERK levels in Ctrl cells” value in experiment [2] (Ctrl cells, bicarbonate plus KH7, FIG. 8K) is listed as “blocked by KH7”. Further, the “pERK levels in shY/T cells” value in experiment [2] (setting [7]) was “drastically inhibited pERK levels”. Besides, the “pAKT levels in Ctrl cells” value in experiment [4] was “not pAKT”.
As to `CO/C1=C\C(C)=C\[C@@H](C)[C@@H](O)[C@@H](C)C/C(C)=C/C=C/[C@H](OC)[C@@H]([C@@H](C)[C@@H](O)[C@H](C)[C@@]2(O)C[C@@H](O)[C@H](C)[C@@H](C(C)C)O2)OC1=O` [bafilomycin], the “bafilomycin-mediated ERK inhibition with exogenous HCO3−” value in experiment [2] (shY/T SN12C, 3 h, 0.3 μM Baf and/or 25 mM NaHCO3) was “rescued by the addition of exogenous HCO3^−”. The “pERK levels in shY/T cells with increasing concentrations” value in experiment [2] (shY/T SN12C) is “inhibited ERK phosphorylation in a dose-dependent manner”. In experiment [1], the “sensitivity of NF2-mutant cells to lysosomal inhibition upon YAP/TAZ depletion” value was “increased the sensitivity of NF2-mutant cells to lysosomal inhibition, especially under nutrient-deprived conditions”. For the same molecule, the “media pH” value with shY/T SN12C cells [5] is given as “significantly reduced pH”. In addition, the intracellular calcium concentration entry with shY/T SN12C cells [6] was “significantly reduced pH and calcium levels”.
On to `O=S(=O)(NCCNC/C=C/c1ccc(Br)cc1)c1cccc2cnccc12` [H-89], for which the “pERK levels in shY/T cells, combination of PKA inhibitor H-89 and EPAC inhibitor HJC” value in experiment [2] (shY/T SN12C cells treated overnight, FIG. 8E) was “synergizes with EPAC inhibitor HJC in reducing pERK levels”. Moreover, in experiment [2] (setting [7]), the “pERK levels in shY/T cells” value was “specifically inhibited ERK phosphorylation”. The “pAKT levels in Ctrl cells” value in experiment [4] is on record as “without also blocking pAKT”.
As to `COc1ccc2cc(-c3cc(-c4cc(C(F)(F)F)ccc4F)nn3[C@@H](C)c3ccc(C(=O)NCCC(=O)O)cc3)ccc2c1` [GRA-1], the “pERK levels in shY/T cells” value in experiment [2] (setting [7]) was “none of the GPCR inhibitors reduced ERK phosphorylation”.
For `O=C(O)CN(CC(=O)O)c1ccccc1OCCOc1ccccc1N(CC(=O)O)CC(=O)O` [BAPTA], the “pERK levels in shY/T cells with increasing concentrations” value in experiment [2] (shY/T SN12C) is recorded as “reduced pERK levels in a dose-dependent manner”.
Same read-out and setting: the same measure for `Cl` [HCl]: “reduced pERK levels in a dose-dependent manner”.
Regarding `O=C(O)O` [Bicarbonate, NaHCO3], in experiment [2] (Ctrl cells), the “pERK levels in Ctrl cells” value is given as “raised pERK levels”.
Turning to `CNC(=O)c1cc(Oc2ccc(NC(=O)Nc3ccc(Cl)c(C(F)(F)F)c3)cc2)ccn1` [Sorafenib], in experiment [2] (setting [7]), the “pERK levels in shY/T cells” value is reported as “inhibited pERK levels”. The “pAKT levels in Ctrl cells” value in experiment [4] is “did not reduce pAKT levels”.
For `Nc1ncnc2c1ncn2[C@@H]1O[C@@H]2COP(O)(=S)O[C@H]2[C@H]1O` (some centres unmarked) [Rp-cAMP] the same measures were “specifically inhibited ERK phosphorylation” and “without affecting pAKT”.
As to `CN=c1nc(-c2ccccc2)n(-c2ccccc2)s1` [SCH 202676], in experiment [2] (setting [7]), the “pERK levels in shY/T cells” value is recorded as “none of the GPCR inhibitors reduced ERK phosphorylation”.
As for “EGF: epidermal growth factor (NSDSECPLSHDGYCLHDGVCMYIEALDKYACNCVVGYIGERCQYRDLKWWELR; Epidermal growth factor; UniProt P01133 971-1023, looked up)”, in experiment [4] (shY/T SN12C cells after addition of EGF), the “AKT phosphorylation in shY/T cells” value is “partially rescued AKT phosphorylation”. Also, the “proliferation under nutrient-replete conditions” value in experiment [3] was “allowed shY/T cells to regain the ability to proliferate”. Also, in experiment [3] (−Glc or −Gln), the “Glc- and Gln-starvation-induced cell death in shY/T cells” value is “did not prevent cell death”.
With `[Ca+2].[Cl-].[Cl-]` [calcium, CaCl2], the “pERK levels in Ctrl cells” value in experiment [2] (Ctrl cells) is on record as “increased pERK levels”.
`Cl.c1ccc(C2CCCC2NC2=NCCCCCCCCCCC2)cc1` (centres unmarked) [MDL 12330A]: in experiment [2] (overnight, FIG. 8K), the “ERK phosphorylation, tmAC activator/inhibitor alone or in combination” value is given as “no effect on ERK phosphorylation”.
